Assay results as given in patent US20260234464A1, “POLYALKYL PHOSPHONATED POLYOL ETHER BASED SCALE INHIBITORS” (ChampionX LLC, priority 2023, published 2026).

Test: static efficiency test of sulfate scale inhibition
Details: 90° C., one hour after mixing anion and cation brine 1:1 (v/v), Ba2+ in solution; for inhibition efficiency, Brine A: SI dosage 1 ppm; for inhibition efficiency, Brine B: SI dosage 7.5 ppm; for inhibition efficiency, Brine C: SI dosage 5 ppm; for inhibition efficiency, Brine D: SI dosage 30 ppm
Procedure: Anion brine and cation brines A, B, C, and D were prepared according to Table 1. The preheated anion brine and cation brine were mixed at 1:1 (v/v) ratio to achieve the targeted concentration. Briefly. In the blank test, no scale inhibitor (SI) was added, but a known amount of various SI was added to other test bottles to understand the performance of various SIs. In the scale inhibition tests, inhibition performance or inhibition efficiency at 90° C., especially for barite inhibition at one hour after mixing of anion and cation brine with and without presence of SI was determined using the following equation:
[formula] • At where: • Ca is the concentration (mg/L) of Ba^2+ in solution after the one-hour test with scale inhibitor. • Cb is the concentration (mg/L) of Ba^2+ in solution in the blank after the one-hour test (without scale inhibitor). • Co is the concentration (mg/L) of the resulting Ba^2+ in synthetic water.
The SI dosages in Brine A, B, C and […] was 1, 7.5, 5, and 30 ppm, respectively.

SMILES	inhibition efficiency, Brine A [%]	inhibition efficiency, Brine B [%]	inhibition efficiency, Brine C [%]	inhibition efficiency, Brine D [%]
O=P(O)(O)CN(CCNCC(O)COCC(O)C(OCC(O)CNCCN(CP(=O)(O)O)CP(=O)(O)O)C(O)C(COCC(O)CNCCN(CP(=O)(O)O)CP(=O)(O)O)OCC(O)CNCCN(CP(=O)(O)O)CP(=O)(O)O)CP(=O)(O)O (stereo not shown) [Example 2, 12,14-bis(3-((2-(bis(phosphonomethyl)amino)ethyl)amino)-2-hydroxypropoxy)-2,23-(bis(phosphonomethyl)amino)-9,16-dioxa-2,5,20,23-tetraazatetracosane-7,11,13,18-tetraol]	100	100	84	83
O=P(O)(O)CN(CCO)CC(O)COCC(O)C(OCC(O)CN(CCO)CP(=O)(O)O)C(O)C(COCC(O)CN(CCO)CP(=O)(O)O)OCC(O)CN(CCO)CP(=O)(O)O (stereo not shown) [Example 3, 10,12-bis(2-hydroxy-3-((2-hydroxyethyl)(phosphonomethyl)amino)propoxy)-3,18-bis(phosphonomethyl)-7,14-dioxa-3,18-diazaicosane-1,5,9,11,16,20-hexaol]	48	36	71	5
O=P(O)(O)CN(CC(O)COCC(CO)OCC(O)CN(CP(=O)(O)O)CP(=O)(O)O)CP(=O)(O)O (stereo not shown) [Example 5]	42	86	86	42
O=P(O)(O)CN(CCN(CP(=O)(O)O)CP(=O)(O)O)CCN(CP(=O)(O)O)CP(=O)(O)O [DTPMP, diethylenetriamine penta(methylene phosphonic acid), reference compound]	94	77	100	24
O=P(O)(O)CN(CC(O)COCC(O)C(OCC(O)CN(CP(=O)(O)O)CP(=O)(O)O)C(O)C(COCC(O)CN(CP(=O)(O)O)CP(=O)(O)O)OCC(O)CN(CP(=O)(O)O)CP(=O)(O)O)CP(=O)(O)O (stereo not shown) [Example 1, 1,3,5,6-Tetrakis{3-[bis(phosphonomethyl)amino]-2-hydroxypropoxy}-2,4-hexandiol]	57	88	67	42
CN(CC(O)COCC(O)C(OCC(O)CN(C)CP(=O)(O)O)C(O)C(COCC(O)CN(C)CP(=O)(O)O)OCC(O)CN(C)CP(=O)(O)O)CP(=O)(O)O (stereo not shown) [Example 4]	23	7	5	2
O=P(O)(O)CN(CC(O)COCCCCOCC(O)CN(CP(=O)(O)O)CP(=O)(O)O)CP(=O)(O)O (stereo not shown) [Example 6, 3,3-(butane-1,4-diylbis(oxy))bis(1-(bis(phosphonomethyl))propan-2-ol)]	47	63	98	6
